Results: publication PMC7248705, “A Pharmacokinetic and Pharmacodynamic Evaluation of the Anti-Hepatocellular Carcinoma Compound 4-N-Carbobenzoxy-gemcitabine (Cbz-dFdC)” (Molecules, 2020)
Where two headings read alike, the source gives them in different places.

Tests used:
[1] = Tissue distribution (liver, kidney, intestine); type: in vivo, SD rats; conditions: rats; drug concentration in tissue lower than plasma concentration
Method: In order to investigate the drug distribution in different tissues and the relationship between CES1 activity and tissue concentration, we conducted tissue distribution experiments. The SD rats were divided into six groups (n = 6 for each group). After a single intragastric administration of Cbz-dFdC (22 mg/kg) and a single injected administration of dFdC (15 mg/kg), the SD rats were sacrificed at 0.5 h, 1.5 h, and 4 h, and the liver, kidney, and intestine were collected. The liver was perfused with ice-cold normal saline and then removed, followed by ice-cold normal saline cleaning. The kidney and intestine were directly removed and then washed with ice-cold normal saline. All of the above operations were carried out on ice, and the removed tissue was stored in an ice bath. The liver, kidney, and intestine were cut and crushed, homogenized with an appropriate amount of phosphate buffer by a homogenizer, and then diluted 5 times with ice-cold PBS buffer (in an ice bath). The tissue homogenates were determined with a BCA kit for protein concentration, a CES1 kit for CES1 activity, and UFLC–MS/MS for drug tissue concentration after pretreatment; the pretreatment method was reported previously.

[2] = parameters: method as in PMID 22099048; conditions: rats, after intravenous injection; cited from earlier work
[3] = test system: HepG2 cells; experiment: Cell uptake in HepG2 cells; type: cell-based, human
Method: (§1) The cells were cultured on a 96-well plate for 4 h for each well. Then, dimethyl sulfoxide solution containing 0.1–100 mM of Cbz-dFdC and dFdC was diluted 1000 times with the medium before administration. A total of 200 uL of medium containing Cbz-dFdC and dFdC was added per well (n = 6). The medium with drugs was discarded, and 10% CCK-8 solution was added. Then, the absorbance value was read at a wavelength of 450 nm after incubation at 37 °C, for 30 min. The drug concentration of Cbz-dFdC and dFdC in cell were determined by a previously established method.

[4] = Plasma pharmacokinetics in vivo; conditions: SD, rat, rats
Method: SD rats (n = 6) were intragastrically administered Cbz-dFdC (22 mg/kg) and intravenously injected with dFdC (15 mg/kg), and 150 μL blood samples were collected from the retro-orbital route in the right eye at 0, 5, 10, 20, and 30 min and at 1, 2, 4, 6, 12, 24, and 48 h, using heparinized tubes. Without delay, the blood was directly centrifuged at 8000× g at 4 °C for 5 min. Then, the supernatant plasma was collected and immediately extracted using a previously established method or was frozen at −80 °C until further analysis.

[5] = parameters: method as in PMID 22099048; conditions: cited from earlier work
[6] = parameters: method as in PMID 22099048; conditions: humans, after intravenous injection; cited from earlier work
[7] = test system: human HepG2 cell line; experiment: CCK-8 tumor cell growth inhibition assay; type: cell-based; conditions: HepG2, CCK-8, concentration-dependent
Method: as §1

[8] = test system: cytidine kinase; parameters: method as in PMID 1718594, PMID 1740680, PMID 8033147, PMID 12127861, PMID 23230131; conditions: after intravenous injection; cited from earlier work
[9] = substrate: O=C(Nc1ccn([C@@H]2O[C@H](CO)[C@@H](O)C2(F)F)c(=O)n1)OCc1ccccc1; experiment: Enzymatic kinetics in vitro, human CES1 recombinase; type: in vitro ADME; conditions: other: Human CES1 Recombinase, 37 °C, 30 min, 5–200 μM Cbz-dFdC
Method: The SD rats without any treatment were sacrificed after adapting to the environment. Blank blood, the liver, the kidney, and the intestine were collected and treated as described in Section 4.4. Part of the homogenate was removed for centrifugation for 20 min at 9000× g at 4 °C, and the supernatant was obtained as tissue S9. The tissue homogenate and S9 were diluted to […] after the protein concentration was determined by the BCA kit (Abcam, Cambridge, MA, USA). Each matrix consisted of 45 uL of the matrix mixed with 5 uL of the drug dissolved in normal saline solution for about 3 min, followed by incubation at 37 °C in a water bath. Then, acetonitrile containing the internal standard was added to terminate the reaction. Human tissue S9 and human CES1 recombinase purchased from the Ruid Liver Disease Research Co., Ltd. (Shanghai, China) were incubated under the same conditions. An enzyme kinetic study was obtained from the matrix following incubation at 37 °C for 30 min with 5, 10, 20, 50, 100, or 200 μM of Cbz-dFdC. We estimated the parameters and simulated curves according to the Eadie–Hofstee method.

[10] = iv, plasma, after i.v. dFdC 15 mg/kg
[11] = plasma, 15 mg/kg, after dFdC intravenous injection
[12] = plasma, oral, 22 mg/kg, dFdC metabolized from Cbz-dFdC after i.g. Cbz-dFdC
[13] = po, plasma analyte after i.g. Cbz-dFdC 22 mg/kg

## Nc1ccn([C@@H]2O[C@H](CO)[C@@H](O)C2(F)F)c(=O)n1 [dFdC, Gemcitabine]
[1]
  tissue penetration: weak tissue penetration
[2]
  half-life: 2.0 h
[3]
  intracellular concentration (cell uptake): higher than that of dFdC, after the Cbz-dFdC treatment
[4]; [10]
  AUC(0-inf): 22700 ng·h/mL
  Cmax: 14100 ng/mL
  Tmax: 0.083 h
  half-life: 10.6 ± 1.86 h
[4]; [11]
  concentration at 12 h: ~200 ng/mL
  concentration at 48 h: ~40 ng/mL
[4]; plasma, intravenous, after i.v. dFdC 15 mg/kg
  concentration at 24 h: ~130 ng/mL
[4]; plasma, iv, after i.v. dFdC 15 mg/kg, read-out: initial plasma concentration
  C0: ~15000 ng/mL
[4]; plasma, oral, 22 mg/kg, after i.g. Cbz-dFdC
  concentration at 24 h: ~300 ng/mL
[4]; [12]
  concentration at 12 h: ~600 ng/mL
  concentration at 48 h: ~130 ng/mL
[4]; [13]
  AUC(0-inf): 27500 ng·h/mL
  Cmax: 1660 ± 432 ng/mL
  Tmax: 4 h
  half-life: 10.4 ± 0.91 h
[5]
  toxic effects on the gastrointestinal tract: serious toxic effects on the gastrointestinal tract
[6]
  half-life: 0.2 h
[7]
  cytotoxicity / tumor cell growth inhibition: better than that of Cbz-dFdC
[8]
  active monophosphate, diphosphate and triphosphate metabolites, share of the dose: about 10%

B1: Human CES1 Recombinase (Homo sapiens) (protein)
chain: GHPSSPPVVDTVHGKVLGKFVSLEGFAQPVAIFLGIPFAKPPLGPLRFTPPQPAEPWSFVKNATSYPPMCTQDPKAGQLLSELFTNRKENIPLKLSEDCLYLNIYTPADLTKKNRLPVMVWIHGGGLMVGAASTYDGLALAAHENVVVVTIQYRLGIWGFFSTGDEHSRGNWGHLDQVAALRWVQDNIASFGGNPGSVTIFGESAGGESVSVLVLSPLAKNLFHRAISESGVALTSVLVKKGDVKPLAEQIAITAGCKTTTSAVMVHCLRQKTEEELLETTLKMKFLSLDLQGDPRESQPLLGTVIDGMLLLKTPEELQAERNFHTVPYMVGINKQEFGWLIPMQLMSYPLSEGQLDQKTAMSLLWKSYPLVCIAKELIPEATEKYLGGTDDTVKKKDLFLDLIADVMFGVPSVIVARNHRDAGAPTYMYEFQYRPSFSSDMKPKTVIGDHGDELFSVFGAPFLKEGASEEEIRLSKMVMKFWANFARNGNPNGEGLPHWPEYNQKEGYLQIGANTQAAQKLKDKEVAFWTNLFAKKAVEKPPQTEHIEL
notes: purchased Ruid Liver Disease Research Co., Ltd. (Shanghai, China)
[9]; appearance of dFdC
  Km: 107.2 µM
  Vmax/Km: 36500 µL/min/mg
[9]; disappearance of Cbz-dFdC
  Km: 258.6 µM
  Vmax/Km: 72700 µL/min/mg
